In US20240158693A1, “Probe for Hydrogen Sulfide Detection, Method for Manufacturing Same, and Composition for Hydrogen Sulfide Detection, Comprising Same” (Korea Institute of Ocean Science &Technology, priority 2020, published 2024):
Structures can show the parent of a compound that is named as a salt. One block for each compound: values may come before it.

Legend:
HSA = HSA (Homo sapiens, UniProt P02768); test: Comparison of fluorescence change of KF and KF-DNBS with HSA; details: SPB pH 7.4, excitation 420 nm
Protocol: Stock solutions of KF and KF-DNBS were prepared in DMSO, and a stock solution of HSA was prepared in distilled water. Blanks, each containing only KF or KF-DNBS (25 μM, 10% DMSO), and samples, each containing KF or KF-DNBS (25 μM, 10% DMSO) with HSA (100 μM) in sodium phosphate buffer (SPB, pH 7.4, 20 mM), were prepared. Fluorescence spectra were then recorded using the fluorescence spectrophotometer under excitation at 420 nm.

[1] = Optimization of sensing conditions for H2S detection (biothiols with and without 2-FBBA)
Protocol: The samples containing HSA (100 μM) and each biothiol (H2S 100 μM, Cys 250 μM, Hcy 100 μM, and GSH 10 μM) with and without 2-formyl benzene boronic acid (2-FBBA) in SPB (pH 7.4, 20 mM) were incubated for 15 minutes at 25° C. KF-DNBS (25 μM, 10% DMSO) was added to the samples followed by the measurement of fluorescence spectra under excitation at 420 nm at 37° C.

[2] = Sensing behavior of KF-DNBS with HSA as selective H2S probe (H2S titration, LOD)
Protocol: The experiment was carried out in triplicate. The limit of detection (LOD) was calculated using 3σ/slope based on the titration experiment, in which σ was the standard deviation of the blank measurements and the slope value was obtained from a plot of the fluorescence intensity versus H2S concentration.

[3] = Selectivity of KF-DNBS toward H2S over other biological analytes
Protocol: Next, the selectivity of KF-DNBS with HSA toward H2S was investigated using various biologically relevant species, including biothiols (Cys, Hcy, and GSH), reactive sulfur species (RSS), and reactive oxygen species (ROS) (HSO4^−, SO4^2−, SO3^2−, S2O3^2−, SCN^−, H2O2, and ClO^−), and anions (CN^−, F^−, Br^−, NO3^−, NO2^−, HCO3^−, and CH3CO2^−).
A blank containing no analyte and a sample containing each analyte (H2S 100 μM, Cys 250 μM, Hcy 100 μM, GSH 10 μM, HSO4^− 100 μM, SO4^2− 100 μM, SO3^2− 100 μM, S2O3^2− 100 μM, SCN^− 100 μM, CN^− 100 μM, F^− 100 μM, Br^− 100 μM, NO3^− 100 μM, NO2^− 100 μM, HCO3^− 100 μM, CH3CO2^− 100 μM, H2O2 100 μM, ClO^− 100 μM) were prepared followed by the addition of HSA (100 μM) and 2-FBBA (2 mM) to SPB (pH 7.4, 20 mM). After incubation for 15 minutes at 25° C., KF-DNBS (25 μM, 10% DMSO) was added to each sample, and then fluorescence intensity at 500 nm was recorded using the fluorescence spectrophotometer under excitation at 420 nm at 37° C. The experiment was conducted in triplicate.

[4] = KF-DNBS 25 μM with HSA 100 μM, 2-FBBA 2 mM, SPB pH 7.4

Sequence of HSA (P02768 25-609): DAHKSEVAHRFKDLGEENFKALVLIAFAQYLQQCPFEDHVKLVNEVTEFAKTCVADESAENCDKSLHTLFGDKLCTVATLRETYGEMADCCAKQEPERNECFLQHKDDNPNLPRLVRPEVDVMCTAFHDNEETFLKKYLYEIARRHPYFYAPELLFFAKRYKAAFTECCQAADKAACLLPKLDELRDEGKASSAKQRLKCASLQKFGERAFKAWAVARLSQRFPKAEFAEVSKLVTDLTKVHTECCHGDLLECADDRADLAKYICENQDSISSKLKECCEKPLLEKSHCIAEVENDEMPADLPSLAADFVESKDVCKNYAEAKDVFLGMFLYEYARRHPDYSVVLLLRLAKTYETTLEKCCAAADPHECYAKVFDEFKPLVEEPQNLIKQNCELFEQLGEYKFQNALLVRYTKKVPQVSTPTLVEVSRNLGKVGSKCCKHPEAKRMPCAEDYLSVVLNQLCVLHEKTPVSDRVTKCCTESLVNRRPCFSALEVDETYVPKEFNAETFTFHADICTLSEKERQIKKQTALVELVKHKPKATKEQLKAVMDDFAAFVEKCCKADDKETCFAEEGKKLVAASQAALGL

- fluorescence shift by addition of HSA (HSA; 25 μM, 10% DMSO, HSA 100 μM): shifted slightly from 550 to 500
- HSA concentration range of linear fluorescence increase (HSA): 5 to 50 µM
- melting point: 250 to 251 °C
Compound: CCN(CC)c1ccc(-c2cc3c(s2)c(-c2ccc(O)cc2)cc(=O)n3C)cc1 [KF, 2-(4-(diethylamino)phenyl)-7-(4-hydroxyphenyl)-4-methylthieno[3,2-b]pyridin-5(4H)-one]

Compound: CCN(CC)c1ccc(-c2cc3c(s2)c(-c2ccc(OS(=O)(=O)c4ccc([N+](=O)[O-])cc4[N+](=O)[O-])cc2)cc(=O)n3C)cc1 (as salt: benzenesulfonate) [KF-DNBS, 4-(2-(4-(diethylamino)phenyl)-4-methyl-5-oxo-4,5-dihydrothieno[3,2-b]pyridin-7-yl)phenyl 2,4-dinitrobenzenesulfonate]
- melting point: 96 to 98 °C

Compound: 2-formyl benzene boronic acid [2-FBBA, reference compound]
- masking of the reactivity of Cys and Hcy upon KF-DNBS ([1]; 2-FBBA 2 mM, Cys 250 μM, Hcy 100 μM, HSA 100 μM): completely block

Compound: CCN(CC)c1ccc(-c2cc3c(s2)c(-c2ccc(OS(=O)(=O)c4ccc([N+](=O)[O-])cc4[N+](=O)[O-])cc2)cc(=O)n3C)cc1 [KF-DNBS, 4-(2-(4-(diethylamino)phenyl)-4-methyl-5-oxo-4,5-dihydrothieno[3,2-b]pyridin-7-yl)phenyl 2,4-dinitrobenzenesulfonate]
- fluorescence in the presence or absence of HSA (HSA; 25 μM, 10% DMSO, HSA 100 μM): weak fluorescence
- fluorescence change induced by Cys and Hcy ([1]; KF-DNBS 25 μM with HSA 100 μM, Cys 250 μM, Hcy 100 μM, without 2-FBBA): noticeable fluorescence change
- fluorescence intensity at 500 nm on addition of H2S ([1]; KF-DNBS 25 μM with HSA 100 μM, H2S 100 μM, SPB pH 7.4, without 2-FBBA): increased significantly
- selectivity to H2S over other biothiols ([1]; KF-DNBS with HSA in the presence of 2-FBBA (2 mM)): superior selectivity
- H2S concentration range of linear fluorescence increase [2, 4]: 5 to 100 µM
- detection limit (3σ/slope) for H2S [2, 4]: 3.2 µM
- time for fluorescence intensity at 500 nm to reach the maximum value ([2]; KF-DNBS 25 μM, HSA 100 μM, 2-FBBA 2 mM, SPB pH 7.4, H2S added, 37° C.): ≤ 20 min
- H2S response in various buffer conditions ([2]; KF-DNBS with HSA, H2S 100 μM, pH 5 to pH 9, 20 mM): worked well
- fluorescence enhancement at 500 nm with various analytes ([3]; KF-DNBS 25 μM, HSA 100 μM, 2-FBBA 2 mM, SPB pH 7.4, 18 analytes): remarkable fluorescence enhancement was observed only for H2S
- selectivity toward H2S ([3]; KF-DNBS with HSA and masking reagent 2-FBBA, biothiols, RSS, ROS, anions): high selectivity
